Assay results: article PMC4311985, “Molecular Surveillance of Antiviral Drug Resistance of Influenza A/H3N2 Virus in Singapore, 2009-2013” (PLoS ONE, 2015)

How the values were obtained:
[1] = test system: NA with combination of G248R and K249E mutations; conditions: 'low levels' of resistance; cited from earlier work
[2] = target: influenza A/H3N2 NA, wild-type (baseline) at loci 93, 155, 251 (Influenza A virus (H3N2), UniProt V9SU56); format: biochemical; conditions: wild-type (baseline) at each locus; 10 samples tested; mean; read-out: mean drug concentration required to inhibit 50% NA activity

Row | Compound | IC50 increase [1] [fold] | IC50 [2] [nM]
1 | CCOC(=O)C1=C[C@@H](OC(CC)CC)[C@H](NC(C)=O)[C@@H](N)C1 [Oseltamivir, oseltamivir] | < 10 | –
2 | CCC(CC)[C@H](NC(C)=O)[C@@H]1[C@H](O)[C@@H](C(=O)O)C[C@H]1N=C(N)N [Peramivir, peramivir] | – | 0.2 ± 0.1
3 | CC(=O)N[C@H]1[C@H]([C@H](O)[C@H](O)CO)OC(C(=O)O)=C[C@@H]1N=C(N)N [Zanamivir, zanamivir] | < 10 | –
